# Laboratory results as given in patent publication US20190083498A1, “THERAPIES FOR HEMATOLOGIC MALIGNANCIES” (GILEAD CALISTOGA LLC, priority 2008, published 2019).
# How the values were obtained:
# LB cells = assay: MM cell growth with IGF-1 or IL-6, MTT; assay type: cell-based, human; settings: 0.625 μM-[…], IL-6 or IGF-1, 48 h
# Description: LB cells (Myelomonocytic myeloma cell line) were cultured for 48 h with control media; with the compound of formula I, in the presence or absence of either IL-6 or IGF-1. […] Cells were pulsed with 10 μL of 5 mg/mL MTT to each well for the last 4 hours of 48-hour cultures, followed by 100 μL isopropanol containing 0.04 N HCl. Absorbance was measured at 570/630 nm using a spectrophotometer (Molecular Devices).
# [1] = tested on: Akt (Ser473) phosphorylation; assay: Akt phosphorylation in ALL cell lines; assay type: cell-based
# [2] = tested on: T47D and HS-578T cell lines; assay: Proliferation of breast cancer cell lines, AlamarBlue; assay type: cell-based; settings: with serum
# Description: T47D and HS-578T cell lines were grown in the presence of serum plus the indicated concentrations of the compound of formula I. Proliferation was measured in triplicate wells by AlamarBlue® assay (Invitrogen) 96-well plates.
# pAKT = pAKT in DLBCL cell lines; assay type: cell-based
# [3] = human, in vivo
# Description: This example provides data relating to the concentration of the compound of formula I in the blood of a healthy human subject on day 7. The concentration was monitored over a period of 12 hours, after oral administration of 50, 100, or 200 mg BID of the compound of formula I on day 7 of the study. FIG. 11 follows the plasma concentration of the drug over a period of 12 hours from administration.
# In addition, single dose studies wherein 17-400 mg of the compound of formula I was administered in healthy volunteers was carried out.
# Table 1, below, provides an overview of the subjects in the study, wherein either a singe dose (SD) or multiple dose (MD) of the compound of formula I is administered to a subject at varying amounts. The “n” values refer to the number of subjects in each group.
# leukemia cell lines = assay: Apoptosis in leukemia cell lines, Annexin V-FITC/7AAD; assay type: cell-based; settings: 1 μM or 10 μM; 24 hrs
# Description: The percentage of apoptotic cells was determined by Annexin V-FITC/7AAD staining.
# [4] = Blood glucose and insulin levels of a subject; assay type: in vivo, human
# LB and INA-6 MM cells = assay: Growth inhibition of p110δ-positive MM cell lines, MTT; assay type: cell-based, human; settings: 48 h
# INA-6 and LB MM cells = assay: Autophagy: LC3 accumulation, AVO acridine orange staining, LC3/beclin-1 western blot; assay type: cell-based, human
# Source text: Samples were examined under a fluorescence microscope.
# Autophagosome formation was defined by the accumulation of LC3; arrows indicate autophagosomes, FIG. 33A.
# GAPDH served as a loading control.
# [5] = tested on: LB and INA-6 MM cells with BMSCs; assay: Paracrine MM cell growth, cytokine secretion and signaling with BMSCs; assay type: cell-based, human; settings: 48 h
# Description: MM cells (2×10^4 cells/well) were cultured for 48 h in BMSC coated 96-well plates (Costar, Cambridge, Mass.), in the presence or absence of drug. DNA synthesis was measured by [3H]-thymidine (Perkin-Elmer, Boston, Mass.) uptake, with [3H]-thymidine (0.5μ Ci/well) added during the last 8 h of 48 h cultures. All experiments were performed in quadruplicate.
# Cytokine secretion by human BMSCs cocultured with MM cells was assessed by ELISA. […] After 48 h, supernatants were harvested and stored at −80° C. Cytokines were measured using Duo set ELISA Development Kits (R&D Systems, Minneapolis, Minn.). All measurements were carried out in triplicate.
# The cytokine levels in culture supernatants were assessed using Proteome Profiler Antibody Arrays Panel A (R&D Systems, Minneapolis, Minn.), Supernatants from co-cultures with BMSCs were incubated for 4 hours with membranes arrayed with Abs against 37 cytokines, according to manufacturer's instructions.
# DNA synthesis was determined by [3H]-thymidine incorporation. Data represent means (±SD) of triplicate cultures.
# Error bars indicate SD (±).
# INA-6 cells cultured with or without BMSCs were treated with compound for 48 h. Total cell lysates were subjected to immunoblotting using indicated antibodies, FIG. 34F. Actin was used as a loading control.
# HuVECs [6] = assay: In vitro angiogenesis assay, endothelial cell tube formation; assay type: cell-based, human; settings: 0, 1.0, or 10 μM; 8 h
# Description: HUVEC and endothelial growth media were obtained from Lonza (Walkersville, Md., USA). […] After 8 h, tube formation was evaluated using Leika DM IL microscopy (Leica Microsystems, Wetzlar, Germany) and analyzed with IM50 software (Leica Microsystems Imaging Solutions, Cambridge, UK). HUVEC cell migration and rearrangement was visualized, and the number of branching points counted.
# The effect of P110 δ inhibition on angiogenesis was investigated.
# HuVECs [7] = assay: HuVEC viability, MTT; assay type: cell-based, human; settings: 0-20 μM, 48 h
# Source text: Data shown are mean ±SE of triplicate wells from a representative experiment.
# FL cell lines = assay: PI3K signaling and apoptosis in follicular lymphoma cell lines; assay type: cell-based
smiles,measurement,setting,value
"CC[C@H](Nc1ncnc2[nH]cnc12)c1nc2cccc(F)c2c(=O)n1-c1ccccc1 [Compound I, 5-fluoro-3-phenyl-2-[1-(9H-purin-6-ylamino)-propyl]-3H-quinazolin-4-one]",MM cell growth in the presence of cell growth stimulatory cytokines,LB cells,inhibits MM cell growth
same,Akt phosphorylation in ALL cell lines,[1],reduction in Akt phosphorylation
same,proliferation of breast cancer cell lines,[2],inhibits proliferation
same,pAKT levels in DLBCL cell lines,pAKT,reduces pAKT levels
same,tolerability in normal healthy volunteers,[3],well tolerated
same,time the concentration exceeds the PI3Kδ EC50 concentration in basophil,[3]; 7 day,at least 12 hours
same,apoptosis in leukemia cell lines,leukemia cell lines,induces apoptosis
same,insulin levels,[4]; after 7 days of treatment,remained within the normal range
same,blood glucose concentration,"[4]; after 10 days, highest dosage (50-200 mg BID)",remained steady
same,cytotoxicity against p110δ-positive MM cells,LB and INA-6 MM cells,induced cytotoxicity
same,LC3 staining (immunofluorescence),"INA-6 and LB MM cells; 5 μM, 6 h, INA-6 and LB cells",markedly increased LC 3 staining
same,LC3-II and Beclin1 protein,"INA-6 and LB MM cells; INA-6, 6 h",markedly increased
same,acidic vesicular organelles (acridine orange staining),INA-6 and LB MM cells; LB and INA-6 cells,development of AVOs
same,MM cell growth induced by BMSCs,"[5]; 2.5, 5, 10 μM",inhibited
same,cytokine secretion induced by BMSCs,"[5]; ELISA, cytokine arrays",inhibited
same,phosphorylation of AKT and ERK induced by BMSCs,[5]; INA-6 with BMSCs,inhibited
same,capillary-like tube formation,HuVECs [6],inhibited capillary-like tube formation in a dose-dependent fashion
same,cytotoxicity in HuVECs,HuVECs [7],without associated cytotoxicity
same,"pAkt, Akt, pS6 and S6 in FL cell lines",FL cell lines; certain cell lines,"reduction in the production of pAkt, Akt, pS6 and S6"
same,cleavage of PARP and Caspase-3 in FL cell lines,"FL cell lines; dose dependent, 24 hours, 0.1 μM and 0.5 μM",Cleavage of PARP and Caspase-3 is observed
